Like-named read-outs stand apart in the source and are kept apart here.
Experiments:
[1] = target: T1, LIF-LIFR interaction (recombinant human LIFR His-Tag / biotinylated LIF) (Homo sapiens, UniProt P42702); test: Cell-free AlphaScreen assay of LIF-LIFR interaction; assay type: binding; settings: for inhibition at 10 µM: read-out: % LIFR inhibition (10 μM); for inhibition at 50 µM: read-out: % LIFR inhibition (50 μM)
T1 construct: purchased Sino Biological (LIFR); R&D Systems (LIF)
T1 sequence (P42702 45-833 limits assumed): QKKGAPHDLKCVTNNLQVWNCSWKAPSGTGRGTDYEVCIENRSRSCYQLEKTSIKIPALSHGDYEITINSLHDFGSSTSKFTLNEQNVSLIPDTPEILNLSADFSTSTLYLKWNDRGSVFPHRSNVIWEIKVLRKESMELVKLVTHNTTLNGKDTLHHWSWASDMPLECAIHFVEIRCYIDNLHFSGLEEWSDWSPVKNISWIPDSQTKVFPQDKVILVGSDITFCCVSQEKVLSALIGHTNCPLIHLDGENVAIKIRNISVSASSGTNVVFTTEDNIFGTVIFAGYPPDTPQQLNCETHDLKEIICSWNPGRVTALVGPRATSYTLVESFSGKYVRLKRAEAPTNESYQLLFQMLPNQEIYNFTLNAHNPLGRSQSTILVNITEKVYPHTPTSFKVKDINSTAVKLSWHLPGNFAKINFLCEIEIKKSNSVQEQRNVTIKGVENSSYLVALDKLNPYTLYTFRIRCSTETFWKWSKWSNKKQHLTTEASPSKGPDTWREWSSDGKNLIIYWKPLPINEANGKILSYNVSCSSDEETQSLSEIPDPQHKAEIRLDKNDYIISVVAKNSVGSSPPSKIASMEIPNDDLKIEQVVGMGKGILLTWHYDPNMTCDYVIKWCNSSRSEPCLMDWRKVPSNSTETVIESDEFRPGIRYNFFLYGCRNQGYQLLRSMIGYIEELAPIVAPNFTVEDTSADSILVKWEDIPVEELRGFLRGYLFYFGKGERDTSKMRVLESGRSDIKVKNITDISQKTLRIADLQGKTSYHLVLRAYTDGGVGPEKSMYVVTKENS
Experimental: Recombinant human LIFR (His-Tag) and LIF (biotinylated) were purchased from Sino Biologicals (Sino Biological Europe GmbH, Dusseldorf, Germany) and R&D Systems (Abingdon, UK), respectively, and both were reconstituted as required by the manufacturer. Inhibition of LIFR/LIF binding was measured by AlphaScreen, in white, low-volume, 384-well AlphaPlates (PerkinElmer, Waltham, MA, USA) using a final volume of 15 μL and an assay buffer containing 25 mM Hepes (pH 7.4), 100 mM NaCl, and 0.005% Kathon. The concentration of DMSO in each well was maintained at 5% v/v. […] Then, streptavidin donor beads were added (final concentration 20 ng/μL), and the plate was incubated in the dark for 2 h and then read in an EnSpire Alpha multimode plate reader (PerkinElmer, Waltham, MA, USA). […] Each concentration was tested in triplicate (N = 3). When present, outliers were removed, resulting in N = 2. Data, reported as averaged intensity values ± standard deviation and N, were exploited to fit the curves through GraphPad Prism 8.

GPBAR1 = target: T2, GPBAR1 (Homo sapiens, UniProt Q8TDU6); test: Luciferase reporter (transactivation) assay on HEK293T cells transfected with GPBAR1; assay type: cell-based; settings: HEK-293T, relative to TLCA (10 μM) as 100%, mean ± SD, na = not active, read-out: GPBAR1 eff % (10 μM)
T2 construct: expressed in transfected cells; host or cells: HEK293T
T2 sequence (Q8TDU6 1-330): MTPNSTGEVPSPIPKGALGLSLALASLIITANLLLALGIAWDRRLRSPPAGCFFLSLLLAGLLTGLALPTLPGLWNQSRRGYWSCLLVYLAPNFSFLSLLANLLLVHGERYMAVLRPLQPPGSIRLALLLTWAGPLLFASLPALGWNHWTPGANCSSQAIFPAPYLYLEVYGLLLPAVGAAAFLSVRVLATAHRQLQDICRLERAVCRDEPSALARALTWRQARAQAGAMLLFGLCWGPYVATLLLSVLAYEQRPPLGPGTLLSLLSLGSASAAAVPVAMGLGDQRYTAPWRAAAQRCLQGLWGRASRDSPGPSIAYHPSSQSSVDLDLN
Experimental: (§1) Hek293T cells, obtained from ATCC (Manassas, VA, USA), were cultured in a D-MEM medium (Sigma-Merk Life Science S.r.l., Milan, Italy) enriched with 10% fetal bovine serum, 1% L-glutamine, and 1% penicillin/streptomycin. HEPG2 cells, also from ATCC, were grown in an MEM medium (Euroclone, reference ECB2071L) supplemented with 10% fetal bovine serum (Euroclone, reference ECS5000L), 1% L-glutamine (Euroclone, reference ECB3000D), and 1% penicillin/streptomycin (Euroclone, reference ECB3001D). All cultures were maintained in a humidified environment with 5% CO2 at 37 °C. Additionally, it was confirmed that the cells were free from Mycoplasma contamination, as verified using the Mycoplasma PCR Detection Kit (Aurogene, reference G238).
(§2) The luciferase reporter gene assay protocol takes place over four days. On the first day, HEPG2 or HEK293T cells are seeded in a 24-well plate at a density of 7.5 × 10^4 cells/well for HEPG2 or 2.5 × 10^4 cells/well for HEK293T. On the second day, cells are transiently transfected, preparing a separate mix for each receptor. To assess the phosphorylation of STAT3 signaling, HEPG2 cells were transfected with 200 ng of the reporter vector containing the Pgl4.47 response element, along with 100 ng each of LIFR, IL6ST (gp130), and pGL4.70 (Promega, Madison, WI), a vector encoding the human Renilla gene. The following day, the cells were stimulated with 10 ng/mL LIF, either alone or in combination with 2o at concentrations of 0.1, 1, 10, 25, and 50 μM, to generate a dose–response curve. For GPBAR1 agonism, HEK293T cells were transfected with 200 ng of the reporter vector pG29-CRE-LUC, 150 ng of pcmvsport-hTGR5, and 150 ng of pGL4.70, the human Renilla gene. The following day, cells were stimulated with 10 μM TLCA alone as a positive control and compound 2o at concentrations of 1 and 10 nM, as well as 0.1, 1, 2.5, 5, 10, 20, and 30 μM, to generate a dose–response curve. On the final day, cellular lysates were analyzed for luciferase and Renilla activities using the Dual-Luciferase Reporter Assay System (Promega, Madison, WI). pLuminescence was measured with a Glomax 20/20 luminometer (Promega, Madison, WI), and luciferase activities were normalized to Renilla activities.

LIFR = target: T3, LIFR (Homo sapiens, UniProt P42702); test: Luciferase reporter (transactivation) assay on HepG2 cells transfected with LIFR; assay type: cell-based; settings: relative to LIF as 100%, mean ± SD
T3 construct: expressed in transfected cells; host or cells: HepG2
T3 sequence (P42702 45-1097): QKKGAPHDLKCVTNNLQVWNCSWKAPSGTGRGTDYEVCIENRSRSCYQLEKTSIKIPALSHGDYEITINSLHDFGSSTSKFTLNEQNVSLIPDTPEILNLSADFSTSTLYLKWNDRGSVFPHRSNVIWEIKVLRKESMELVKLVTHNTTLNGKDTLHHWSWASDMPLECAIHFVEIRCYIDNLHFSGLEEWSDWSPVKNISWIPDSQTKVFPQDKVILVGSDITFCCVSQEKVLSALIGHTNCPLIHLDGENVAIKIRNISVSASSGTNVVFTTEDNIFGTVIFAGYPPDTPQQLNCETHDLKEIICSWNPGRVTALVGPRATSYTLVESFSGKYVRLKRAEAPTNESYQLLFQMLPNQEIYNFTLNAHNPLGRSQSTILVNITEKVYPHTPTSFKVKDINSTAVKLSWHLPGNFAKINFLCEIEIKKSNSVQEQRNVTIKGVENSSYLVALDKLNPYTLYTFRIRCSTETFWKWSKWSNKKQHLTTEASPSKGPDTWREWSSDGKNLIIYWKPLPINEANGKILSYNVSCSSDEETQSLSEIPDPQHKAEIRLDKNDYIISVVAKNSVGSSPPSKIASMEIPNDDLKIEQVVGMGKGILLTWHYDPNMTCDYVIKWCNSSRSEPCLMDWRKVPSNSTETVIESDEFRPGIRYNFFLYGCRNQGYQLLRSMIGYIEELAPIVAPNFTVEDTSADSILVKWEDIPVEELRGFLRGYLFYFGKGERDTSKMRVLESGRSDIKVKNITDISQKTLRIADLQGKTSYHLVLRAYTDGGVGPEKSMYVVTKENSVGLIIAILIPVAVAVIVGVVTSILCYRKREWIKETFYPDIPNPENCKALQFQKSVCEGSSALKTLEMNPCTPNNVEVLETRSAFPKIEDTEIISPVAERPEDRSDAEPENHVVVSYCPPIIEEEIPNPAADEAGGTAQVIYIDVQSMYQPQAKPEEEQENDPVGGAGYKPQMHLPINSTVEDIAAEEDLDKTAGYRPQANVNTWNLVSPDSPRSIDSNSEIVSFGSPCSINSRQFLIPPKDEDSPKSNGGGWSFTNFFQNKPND
Experimental: as §1, §2

SMILES	inhibition at 10 µM ([1]; 10 μM, LIF-LIFR signal without compound set as 100% interaction, mean ± SD)	inhibition at 50 µM ([1]; 50 μM, LIF-LIFR signal without compound set as 100% interaction, mean ± SD)	IC50 ([1]; inhibition of LIF-LIFR interaction, ± SD, read-out: IC50)	Emax at 10 µM (GPBAR1)	IC50 [1]	inhibition at 10 µM [1]	inhibition at 50 µM [1]	inhibition at 10 µM (LIFR)
CC#C[C@]1(O)CC[C@H]2[C@@H]3CCC4=CC(=O)CCC4=C3[C@@H](c3ccc(N(C)C)cc3)C[C@@]21C [Mifepristone, mifepristone, reference compound]	70.5 ± 3.7%	94.6 ± 7.3%	0.366 ± 0.063 µM	–	–	–	–	–
C[C@]12C[C@H](c3ccccc3)C3=C4CCC(=O)C=C4CC[C@H]3[C@@H]1CCC2=O [Compound 1c, 11β-Phenylestra-4,9-dien-3,17-dione]	–	–	–	35 ± 1.5%	26.9 ± 3.12 µM	34.3 ± 11.2%	40.5 ± 4.18%	76.8 ± 6.7%
C[C@]12C[C@H](Cc3ccc(O)cc3)C3=C4CCC(=O)C=C4CC[C@H]3[C@@H]1CCC2=O [Compound 1e, 11β-(4-Hydroxybenzyl)estra-4,9-dien-3,17-dione]	–	–	–	9 ± 4%	45.6 ± 10.5 µM	29.3 ± 6.7%	35.1 ± 13%	29.1 ± 1.4%
COc1ccc(C[C@H]2C[C@]3(C)C(=O)CC[C@H]3[C@@H]3CCC4=CC(=O)CCC4=C23)cc1 [Compound 1d, 11β-(4-Methoxybenzyl)estra-4,9-dien-3,17-dione]	–	–	–	–	43.1 ± 4.6 µM	26.5 ± 6.2%	41.1 ± 8%	92 ± 7%
C[C@]12C[C@H](c3ccc(C4CC4)cc3)C3=C4CCC(=O)C=C4CC[C@H]3[C@@H]1CCC2=O [Compound 1g, 11β-(4-Cyclopropylphenyl)-estra-4,9-dien-3,17-dione]	–	–	–	16.5 ± 1.5%	9.42 ± 2.32 µM	45.1 ± 1.9%	62.1 ± 6.1%	51.1 ± 1.4%
C[C@]12C[C@H](c3ccc(-c4cccc(C(=O)O)c4)cc3)C3=C4CCC(=O)C=C4CC[C@H]3[C@@H]1CCC2=O [Compound 2t]	–	–	–	20.4 ± 1.4%	24.8 ± 2.8 µM	22.8 ± 5.1%	62.3 ± 7.3%	38.7 ± 0.6%
CN(C)c1ccc([C@H]2C[C@]3(C)C(=O)CC[C@H]3[C@@H]3CCC4=CC(=O)CCC4=C32)cc1 [Compound 1b]	–	–	–	21.7 ± 0.3%	0.535 ± 0.209 µM	60 ± 14.7%	84.3 ± 1.4%	104 ± 2.5%
C[C@]12C[C@H](c3ccc(-c4ccc(Br)nc4)cc3)C3=C4CCC(=O)C=C4CC[C@H]3[C@@H]1CCC2=O [Compound 2d]	–	–	–	–	5.54 ± 1.39 µM	42.1 ± 2.3%	64.4 ± 7.5%	88.8 ± 3.4%
C[C@]12C[C@H](c3ccc(I)cc3)C3=C4CCC(=O)C=C4CC[C@H]3[C@@H]1CCC2=O [Compound 1f, 11β-(4-Iodophenyl)estra-4,9-dien-3,17-dione]	–	–	–	–	9.78 ± 1.75 µM	45.4 ± 1.3%	61.3 ± 7.5%	89.9 ± 1.2%
C[C@]12C[C@H](c3ccc(-c4ccccc4)cc3)C3=C4CCC(=O)C=C4CC[C@H]3[C@@H]1CCC2=O [Compound 1a]	–	–	–	44.8 ± 5.1%	1.42 ± 0.2 µM	62.4 ± 9.2%	76.4 ± 4.1%	33.8 ± 3.7%
COC(=O)c1cccc(-c2ccc([C@H]3C[C@]4(C)C(=O)CC[C@H]4[C@@H]4CCC5=CC(=O)CCC5=C43)cc2)c1 [Compound 2s]	–	–	–	> 50%	0.159 ± 0.06 µM	63.6 ± 4.1%	74.3 ± 14.1%	80.8 ± 0.9%

Source: publication PMC12516728, “Harnessing the Estradienone Scaffold to Develop Dual GPBAR1 and LIFR Modulators for Liver Fibrosis” (Journal of Medicinal Chemistry, 2025)
